Patent US5521197A, “3-<1-alkylenearyl>-4-<1,2,3,6-tetrahydropyridinyl>-and 3-<1-alkylenearyl>-4-piperidinyl-1h-indoles: new 5-HT1F agonists” (Eli Lilly and Company, priority 1994, dated 1996)
Counter-ions that a name gives are not always drawn.

Target: T1, 5-HT1F receptor (Homo sapiens, UniProt P30939)
T1 sequence (P30939 1-366): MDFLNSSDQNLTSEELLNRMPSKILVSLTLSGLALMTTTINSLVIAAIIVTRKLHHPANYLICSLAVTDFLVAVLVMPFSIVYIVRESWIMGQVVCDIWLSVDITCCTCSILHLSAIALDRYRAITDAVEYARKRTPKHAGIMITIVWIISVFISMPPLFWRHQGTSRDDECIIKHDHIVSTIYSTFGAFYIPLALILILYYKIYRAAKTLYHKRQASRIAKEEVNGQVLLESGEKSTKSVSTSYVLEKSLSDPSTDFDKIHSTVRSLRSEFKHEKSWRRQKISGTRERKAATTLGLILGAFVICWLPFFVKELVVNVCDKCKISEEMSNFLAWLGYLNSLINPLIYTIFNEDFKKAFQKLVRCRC
Test: Radioligand ([3H]5-HT) binding to the 5-HT1F receptor subtype
Set-up: expressed in transfected cells; host or cells: Ltk- cells (membranes)
Details: not given
Procedure: The cells were washed twice with phosphate-buffered saline, scraped from the culture dishes into 5 mL of ice-cold phosphate-buffered saline, and centrifuged at 200×g for 5 minutes at 4° C. The pellet was resuspended in 2.5 mL of ice-cold Tris buffer (20 mM Tris HCl, pH=7.4 at 23° C., 5 mM EDTA) and homogenized with a Wheaton tissue grinder. The lysate was subsequently centrifuged at 200×g for 5 minutes at 4° C. to pellet large fragments which were discarded. The supernatant was collected and centrifuged at 40,000×g for 20 minutes at 4° C. The pellet resulting from this centrifugation was washed once in ice-cold Tris wash buffer and resuspended in a final buffer containing 50 mM Tris HCl and 0.5 mM EDTA, pH=7.4 at 23° C. Membrane preparations were kept on ice and utilized within two hours for the radioligand binding assays.
Saturation studies were conducted using [^3 H]5-HT at 12 different concentrations ranging from 0.5 nM to 100 nM. […] The binding profile of drugs in competition experiments was accomplished using 10-12 concentrations of compound. […] Nonspecific binding was defined in the presence of 10 μM 5-HT. Binding was initiated by the addition of 50 μL membrane homogenates (10-20 μg). The reaction was terminated by rapid filtration through presoaked (0.5% polyethyleneimine) filters using 48R Cell Brandel Harvester (Gaithersburg, Md.). Subsequently, filters were washed for 5 seconds with ice cold buffer (50 mM Tris HCl, pH=7.4 at 4° C.), dried and placed into vials containing 2.5 mL Readi-Safe (Beckman, Fullerton, Calif.) and radioactivity was measured using a Beckman LS 5000TA liquid scintillation counter. […] Binding data was analyzed by computer-assisted nonlinear regression analysis (Accufit and Accucomp, Lunden Software, Chagrin Falls, Ohio). […] All experiments were performed in triplicate. […]

| Compound | Ki [nM] |
| --- | --- |
| C1=C(c2c[nH]c3ccccc23)CCN(CCc2ccccc2)C1 [Example 19, 3-<1-<2-phenylethyl>-4-<1,2,3,6-tetrahydropyridinyl>>-1H-indole] | 81.1 |
| COc1ccc2[nH]cc(C3=CCN(CCc4ccccc4)CC3)c2c1 [Example 21, 5-methoxy-3-<1-<2-phenylethyl>-4-<1,2,3,6-tetrahydropyridinyl>>-1H-indolehydrochloride] | 33.9 |
| Cc1ccc2[nH]cc(C3=CCN(CCc4ccccc4)CC3)c2c1 [Example 23, 5-methyl-3-<1-<2-phenylethyl>-4-<1,2,3,6-tetrahydropyridinyl>>-1H-indolemaleate] | 28.3 |
| NC(=O)c1ccc2[nH]cc(C3=CCN(CCc4ccccc4)CC3)c2c1 [Example 24, 5-carboxamido-3-<1-<2-phenylethyl>-4-<1,2,3,6-tetrahydropyridinyl>>-1H-indole maleate] | 23.6 |

Same assay, conditions: Table I, [3H]5-HT displacement, transfected Ltk- cell membranes, 37° C.; read-out: 5-HT1F BINDING Ki

| Compound | Ki [nM] |
| --- | --- |
| Brc1ccc(CCN2CCC(c3c[nH]c4ccccc34)CC2)cc1 [Example 7, 3-<1-<2-<4-bromophenyl>ethyl>-4-piperidinyl>-1H-indole hydrochloride] | 73.3 |
| Fc1ccccc1CCN1CCC(c2c[nH]c3ccccc23)CC1 [Example 1, 3-<1-<2-<2-fluorophenyl>ethyl>-4-piperidinyl>-1H-indole hydrochloride] | 29.5 |
| Clc1ccccc1CCN1CCC(c2c[nH]c3ccccc23)CC1 [Example 5, 3-<1-<2-<2-chlorophenyl>ethyl>-4-piperidinyl>-1H-indole hydrochloride] | 35.2 |
| Fc1cccc(CCN2CCC(c3c[nH]c4ccccc34)CC2)c1 [Example 2, 3-<1-<2-<3-fluorophenyl>ethyl>-4-piperidinyl>-1H-indole hydrochloride] | 55.5 |
| C1=C(c2c[nH]c3ccccc23)CCN(CCCOc2ccccc2)C1 [Example 38, 3-<1-<3-phenoxypropyl>-4-<1,2,3,6-tetrahydropyridinyl>>-1H-indolehydrochloride] | 136 |
| Cc1cccc(CCN2CCC(c3c[nH]c4ccccc34)CC2)c1 [Example 9, 3-<1-<2-<3-methylphenyl>ethyl>-4-piperidinyl>-1H-indole hydrochloride] | 29.7 |
| COc1ccc2[nH]cc(C3CCN(CCc4ccc(F)cc4)CC3)c2c1 [Example 4, 5-methoxy-3-<1-<2-<4-fluorophenyl>ethyl>-4-piperidinyl>-1H-indolehydrochloride] | 35.8 |
| Cc1ccccc1CCN1CCC(c2c[nH]c3ccccc23)CC1 [Example 8, 3-<1-<2-<2-methylphenyl>ethyl>-4-piperidinyl>-1H-indole hydrochloride] | 45 |
| C1=C(c2c[nH]c3ccccc23)CCN(Cc2ccccc2)C1 [Example 44, 3-<1-benzyl-4-<1,2,3,6-tetrahydropyridinyl>>-1H-indole hydrochloride] | 396 |
| c1ccc(CN2CCC(c3c[nH]c4ccccc34)CC2)cc1 [Example 45, 3-<1-benzyl-4-piperidinyl>-1H -indole] | 240 |
| C1=C(c2c[nH]c3ccccc23)CCN(CCOc2ccccc2)C1 [Example 37, 3-<1-<2-phenoxyethyl>-4-<1,2,3,6-tetrahydropyridinyl>>-1H-indolehydrochloride] | 413 |

Further lines, results first:

| Ki [nM] | Compound |
| --- | --- |
| 16.1 | FC(F)(F)c1cccc(CCN2CCC(c3c[nH]c4ccccc34)CC2)c1 [Example 17, 3-<1-<2-<3-trifluoromethylphenyl>ethyl>-4-piperidinyl>-1H -indole] |
| 844 | c1ccc(COc2ccc(CCN3CCC(c4c[nH]c5ccccc45)CC3)cc2)cc1 [Example 15, 3-<1-<2-<4-benzyloxyphenyl>ethyl>-4-piperidinyl>-1H-indole] |
| 76.7 | c1ccc2c(CCN3CCC(c4c[nH]c5ccccc45)CC3)cccc2c1 [Example 35, 3-<1-<2-<1-naphthyl>ethyl>-4-piperidinyl>-1H-indole] |
| 37.8 | Cc1ccc2[nH]cc(C3CCN(CCc4ccccc4)CC3)c2c1 [Example 30, 5-methyl-3-<1-<2-phenylethyl>-4-piperidinyl>-1H -indole hydrochloride] |
| 36.9 | NC(=O)c1ccc2[nH]cc(C3CCN(CCc4ccccc4)CC3)c2c1 [Example 31, 5-carboxamido-3-<1-<2-phenylethyl>-4-piperidinyl>-1H-indole hydrochloride] |
| 67.6 | Cc1ccc(CCN2CCC(c3c[nH]c4ccccc34)CC2)cc1 [Example 10, 3-<1-<2-<4-methylphenyl>ethyl>-4-piperidinyl>-1H-indole hydrochloride] |
| 29.6 | Fc1ccc2[nH]cc(C3CCN(CCc4ccccc4)CC3)c2c1 [Example 25, 5-fluoro-3-<1-<2-phenylethyl>-4-piperidinyl>-1H-indole hydrochloride] |
| 342 | c1ccc(SCCN2CCC(c3c[nH]c4ccccc34)CC2)cc1 [Example 42, 3-<1-<2-<phenylthio>ethyl>-4-piperidinyl>-1H-indole] |
| 127 | COc1ccc(CCN2CCC(c3c[nH]c4ccccc34)CC2)cc1 [Example 33, 3-<1-<2-<4-methoxyphenyl>ethyl>-4-piperidinyl>-1H-indole hydrochloride] |
| 20.4 | c1ccc(CCCCN2CCC(c3c[nH]c4ccccc34)CC2)cc1 [Example 46, 3-<1-<4-phenylbutyl>-4-piperidinyl>-1H-indole hydrochloride] |
| 191 | c1ccc(OCCN2CCC(c3c[nH]c4ccccc34)CC2)cc1 [Example 40, 3-<1-<2-phenoxyethyl>-4-piperidinyl>-1H-indole hydrochloride] |
| 128 | COc1ccc(CCN2CCC(c3c[nH]c4ccc(OC)cc34)CC2)cc1 [Example 13, 5-methoxy-3-<1-<2-<4-methoxyphenyl>ethyl>-4-piperidinyl>-1H-indole oxalate] |
| 185 | CCOc1ccc(CCN2CCC(c3c[nH]c4ccccc34)CC2)cc1 [Example 14, 3-<1-<2-<4-ethoxyphenyl>ethyl>-4-piperidinyl>-1H-indole hydrochloride] |
| 64.3 | FC(F)(F)c1ccccc1CCN1CCC(c2c[nH]c3ccccc23)CC1 [Example 16, 3-<1-<2-<2-trifluoromethylphenyl>ethyl>-4-piperidinyl>-1H-indolehydrochloride] |
| 2.5 | Oc1ccc2[nH]cc(C3CCN(CCc4ccccc4)CC3)c2c1 [Example 36, 5-hydroxy-3-<1-<2-phenylethyl>-4-piperidinyl>-1H-indole hydrochloride] |
| 21.1 | COc1cccc(CCN2CCC(c3c[nH]c4ccccc34)CC2)c1 [Example 12, 3-<1-<2-<3-methoxyphenyl>ethyl>-4-piperidinyl>-1H-indole hydrochloride] |
| 34 | COc1ccccc1CCN1CCC(c2c[nH]c3ccccc23)CC1 [Example 11, 3-<1-<2-<2-methoxyphenyl>ethyl>-4-piperidinyl>-1H -indole hydrochloride] |
| 45.5 | Clc1ccc2[nH]cc(C3CCN(CCc4ccccc4)CC3)c2c1 [Example 27, 5-chloro-3-<1-<2-phenylethyl>-4-piperidinyl>-1H-indole hydrochloride] |

Same assay, conditions: Table I, at 1000 nM; read-out: 5-HT1F BINDING, % displacement at 1000 nM

| inhibition at 1 µM [%] | Compound |
| --- | --- |
| 50 | c1ccc(CCCN2CCC(c3c[nH]c4ccccc34)CC2)cc1 [Example 48, 3-<1-<3-phenylpropyl>-4-piperidinyl>-1H-indole hydrochloride] |

Same assay, conditions: read-out: 5-HT1F BINDING, % displacement at 1000 nM

| Compound | inhibition at 1 µM [%] |
| --- | --- |
| C1=C(c2c[nH]c3ccccc23)CCN(CCSc2ccccc2)C1 [Example 39, 3-<1-<2-<phenylthio>ethyl>-4-<1,2,3,6-tetrahydropyridinyl>>-1H-indole] | 34 |
| C1=C(c2c[nH]c3ccccc23)CCN(CCc2cccc3ccccc23)C1 [Example 34, 3-<1-<2-<1-naphthyl>ethyl>-4-<1,2,3,6-tetrahydropyridinyl>>-1H-indole] | 38 |
| C1=C(c2c[nH]c3ccc(OCc4ccccc4)cc23)CCN(CCc2ccccc2)C1 [Example 22, 5-benzyloxy-3-<1-<2-phenylethyl>-4-<1,2,3,6-tetrahydropyridinyl>>-1H-indolehydrochloride] | 62 |
| C1=C(c2c[nH]c3ccccc23)CCN(CCCc2ccccc2)C1 [Example 47, 3-<1-<3-phenylpropyl>-4-<1,2,3,6-tetrahydropyridinyl>>-1H-indolehydrochloride] | 62 |
